The target in one experiment is T1, Potassium channel subfamily K member 2 (Homo sapiens, UniProt O95069).
T1 sequence (O95069 whole entry): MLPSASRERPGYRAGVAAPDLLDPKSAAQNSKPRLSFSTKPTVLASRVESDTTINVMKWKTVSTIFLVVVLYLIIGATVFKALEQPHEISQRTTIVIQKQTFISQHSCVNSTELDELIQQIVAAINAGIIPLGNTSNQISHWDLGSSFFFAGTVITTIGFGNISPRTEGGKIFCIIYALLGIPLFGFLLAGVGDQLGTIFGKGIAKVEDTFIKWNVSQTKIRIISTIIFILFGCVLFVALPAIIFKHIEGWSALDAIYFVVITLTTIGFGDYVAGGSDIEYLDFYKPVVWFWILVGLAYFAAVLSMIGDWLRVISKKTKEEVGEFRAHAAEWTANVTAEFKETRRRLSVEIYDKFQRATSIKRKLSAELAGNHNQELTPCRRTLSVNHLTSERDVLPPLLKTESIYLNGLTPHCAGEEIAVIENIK
The experiment in a line: Thallium flux assay.
Consider `Cc1cc(C#Cc2cccc(F)c2)nc(C)c1NC(=O)c1cc(NC(=O)OC(C)(C)C)ccc1Cl` [US20240190824, Compound 11], for which half-maximal inhibition (IC50) was put at 410 nM.

As for `Cc1cc(C#Cc2ccccc2)cc(F)c1NC(=O)c1cc(NC(=O)OC(C)(C)C)ccc1Cl` [US20240190824, Compound 29], the IC50 – broadly, the concentration that inhibits the measured activity by half – was determined as 210 nM. The same measure, in the same setting: the same measure for `CC(C)(C)OC(=O)Nc1ccc(Cl)c(C(=O)Nc2c(F)cc(C#Cc3ccccc3)cc2F)c1` [US20240190824, Compound 30]: 220 nM. On the same count and under the same terms, with `Cc1cc(COc2ccc(Cl)c(C(=O)Nc3ncc(C#Cc4ccccc4)cc3C)c2)on1` [US20240190824, Compound 83] the figure was 390 nM. On the same count and under the same terms, with `Cc1cc(C#Cc2ccccc2)cnc1NC(=O)c1cc(OCC2CCOC2)ccc1Cl` (stereo unspecified) [US20240190824, Compound 85] the figure was 490 nM.

For a further experiment, the target named is T1, Potassium channel subfamily K member 2. The experiment can be described thus: TREK-1 Manual Patch Clamp (hMPC) assay. The protocol: TBDCHO-K1 cells stably expressing human TREK-1 or HEK293 cells stably expressing human TREK-2 are plated on glass coverslips, and voltage clamped in the whole-cell configuration of the patch clamp technique. Cells were voltage clamped at a holding potential of −80 mV and the stepped to 0 mV for 500 msec. The voltage was subsequently ramped from −120 mV to +80 mV over a 500 msec duration. This step-ramp protocol was repeated every 10 sec.
In general terms: Patch clamp records ionic current or voltage across a cell membrane.
`Cc1cc(C#Cc2cccc(F)c2)nc(C)c1NC(=O)c1cc(NC(=O)OC(C)(C)C)ccc1Cl` [US20240190824, Compound 11] showed an IC50 of 32 nM.

Values taken from BindingDB's records for patent US20240190824 (Ono Pharmaceutical Co., 2024).
